Source: patent US11912716B2 (priority 2018, dated 2024)

Key:
[1] = system: morphine-dependent mice; experiment: morphine-induced physical dependence, withdrawal jumping (Example 15); type: in vivo, Kunming mice; conditions: 1 g/kg, 3 hours before naloxone
[2] = system: morphine-induced conditioned place preference behavior in rats; experiment: morphine-induced conditioned place preference behavior, single oral administration before test (Example 12); type: in vivo, SD rats; conditions: 70 mg/kg single oral dose 60 minutes before test, morphine 10 mg/kg s.c. for four days
[3] = system: formation of conditioned place preference induced by morphine in rats; experiment: formation of conditioned place preference induced by morphine, concomitant administration (Example 13); type: in vivo, SD rats; conditions: 70 mg/kg oral 30 minutes before each morphine injection (10 mg/kg s.c.), four consecutive days
[4] = system: morphine-dependent animals; experiment: naloxone-precipitated morphine-withdrawal jumping (Example 10); type: in vivo, Kunming mice
[5] = system: SD rats; experiment: addictive potential: induction of conditioned place preference (Example 14); conditions: for CPP SCORE: morphine 10 mg/kg s.c. daily for four consecutive days, hydrochloride
[6] = 0.125 g/kg intragastric, 1 hour after administration
[7] = 0.25 g/kg intragastric, 1 hour after administration
[8] = 0.5 g/kg intragastric, 1 hour after administration
[9] = 0.5 g/kg intragastric, 3 hours after administration

CC(=O)O[C@H]1[C@H](OC(C)=O)[C@H]([C@@](C)(O)CC[C@@H]2OC(C)(C)[C@H]3CC[C@]2(C)O3)[C@@]2(C)CC[C@@H]3OC(C)(C)[C@H](OC(C)=O)CC[C@@]3(C)[C@H]12 [3,12,13-triacetyl limaxol A, (3R,5aS,7aS,8R,9R,10R,10aR,10bS)-dodecahydro-8-((S)-2-hydroxy-4-((1S,2S,5R)-1,4,4-trimethyl-3,8-dioxa-bicyclo[3.2.1]octan-2-yl)butan-2-yl)-4,4,7a,10b-tetramethyl-1H-indeno[5,4-b]oxepine-3,9,10-triol triacetate]
Inhibition of morphine-withdrawal jumping [1]: 43.13% | Jumping times (Mean ± SEM) [1]: 21.7 ± 6.9 | CPP SCORE ([2]; listed as Triacetyl limaxol A): 318.5 ± 90.9 n = 7 s | CPP SCORE ([2]; listed as triacetyl limaxol A): 318.5 ± 90.9 s | CPP SCORE ([3]; listed as Triacetyl limaxol A): 223.8 ± 34.0 n = 6 s | CPP SCORE ([3]; listed as triacetyl limaxol A): 318.5 ± 90.9 s | % Inhibition of morphine-withdrawal jumping [4, 6]: 3.0 ± 12.2% | Jumping times (Mean ± SEM) [4, 6]: 33.5 ± 4.1 | % Inhibition of morphine-withdrawal jumping [4, 7]: 21.1 ± 28.2% | Jumping times (Mean ± SEM) [4, 7]: 27.5 ± 9.4 | % Inhibition of morphine-withdrawal jumping [4, 8]: 48.2 ± 7.5% | Jumping times (Mean ± SEM) [4, 8]: 18.5 ± 2.4 | % Inhibition of morphine-withdrawal jumping [4, 9]: 45.0 ± 17.0% | Jumping times (Mean ± SEM) [4, 9]: 16.7 ± 4.9

CC(=O)O[C@H]1[C@H](OC(C)=O)[C@H]([C@@](C)(O)CC[C@]2(C)OC(C)(C)[C@H]3CC[C@]2(C)O3)[C@@]2(C)CC[C@@H]3OC(C)(C)[C@H](O)CC[C@@]3(C)[C@H]12 [limaxol A, reference compound]
Inhibition of morphine-withdrawal jumping [1]: 21.26% | Jumping times (Mean ± SEM) [1]: 30.0 ± 9.7

CCC(=O)C(CC(C)N(C)C)(c1ccccc1)c1ccccc1 (stereo not drawn) [methadone, reference compound]
Jumping times (Mean ± SEM) ([4]; methadone 20 mg/kg intragastric, 1 hour before naloxone, jumpings within 30 minutes): 33.8 ± 3.3 | withdrawal jumping symptoms versus morphine model group (in words) ([4]; methadone 20 mg/kg, 1 hour after administration): significantly reduced

CN1CC[C@]23c4c5ccc(O)c4O[C@H]2[C@@H](O)C=C[C@H]3[C@H]1C5.Cl [morphine, morphine hydrochloride]
induction of conditioned place preference (in words) ([5]; morphine 10 mg/kg s.c.): induced conditioned place preference behavior | CPP SCORE [5]: 208.3 ± 16.2 s | CPP SCORE ([5]; listed as Morphine): 208.3 ± 16.2 n = 10 s
